Measured values reported in patent US9709486B2, “Method of dynamic spectroscopy under physiological conditions” (INOVIEM SCIENTIFIC, priority 2012, dated 2017).

What was measured:
[1] = test system: rat hypothalamus extracts; assay: Dynamic NIR spectroscopy of rat hypothalamus extracts in presence of bithionol; settings: FIG. 11
From the text: Sample buffer constituted the blank.

[2] = test system: crude membrane proteins from each patient's PBMC; assay: Dynamic NIR spectroscopy of crude PBMC membrane proteins of IBD patients in absence and presence of infliximab; parameters: species or system human; settings: infliximab 10e-6M, samples of patients responding to infliximab, 850-1450 nm, FIG. 17
Protocol: All the patients have a treatment: infliximab (Remicad®). infliximab is an anti-TNFalpha. 50 patients (women=16, men=34) with an average age of 43±8 year seeking medical assistance at Erlangen hospital day-care unit are taking part to the study. Patient's whole blood is collected using sodium citrate vacutainer tubes (5-10 ml/patient). Samples are blinded.
Peripheral blood mononuclear cells (PBMCs) are separated and isolated on ficoll gradient from blood samples, and then frozen. Crude PBMC membranes are prepared in physiological conditions without addition of any protease inhibitor or anti-phosphatase or lyses buffer. PBMC samples were subjected to three fast deep freezing (liquid nitrogen, slow thaw at 4° C., cycle. Determination of protein concentration: total protein concentration was determined using BCA assay (BCA Protein Assay Reagent, bicinchoninic acid). […]
One variable is analyzed in presence and in absence of infliximab: Compare Individual Macromolecular Volume (INV), that is defined as the total macromolecular spectral change from −37° C. to 37° C., due to the macromolecular conformational changes in absence and presence of a drug, expressed as change in absorbance as a function of wavelength and temperature. […]
Results are analyzed based on their spectral fingerprints going from −37° C. to 37° C. and compared to identify responders and non-responders patients.

Molecule | effect on protein assemblies / protein conformation (water molecules spectra in NIR wavelength) ([1]; 1 μM test molecule, extract 10^−6 mg/ml, −37° C. to 37° C.) | reversibility of induced conformation changes ([1]; 1 μM, visible in low temperature (most at −37° C.)) | Individual Macromolecular Volume (INV), total macromolecular spectral change from −37° C. to 37° C. [2]
Oc1c(Cl)cc(Cl)cc1Sc1cc(Cl)cc(Cl)c1O [bithionol] | disturbs the protein assemblies | reversible as the temperature rises | 
infliximab |  |  | increases unanimously
